From US20200254065A1, “LONG-ACTING GLP-2 ANALOGS” (OPKO Biologics Ltd., priority 2019, published 2020)
Square brackets hold non-standard residues; d marks the D form. Ends that are not written are not given here. Peptide text beside a SMILES is read from it. Nle = CCCC[C@H](N)C(=O)O

How the values were obtained:
GLP-2 receptor [1] = biological target: T1, GLP-2 receptor (Homo sapiens, UniProt O95838); assay: GLP-2 receptor Cell Based Assay (CBA)
T1 sequence (O95838 1-553): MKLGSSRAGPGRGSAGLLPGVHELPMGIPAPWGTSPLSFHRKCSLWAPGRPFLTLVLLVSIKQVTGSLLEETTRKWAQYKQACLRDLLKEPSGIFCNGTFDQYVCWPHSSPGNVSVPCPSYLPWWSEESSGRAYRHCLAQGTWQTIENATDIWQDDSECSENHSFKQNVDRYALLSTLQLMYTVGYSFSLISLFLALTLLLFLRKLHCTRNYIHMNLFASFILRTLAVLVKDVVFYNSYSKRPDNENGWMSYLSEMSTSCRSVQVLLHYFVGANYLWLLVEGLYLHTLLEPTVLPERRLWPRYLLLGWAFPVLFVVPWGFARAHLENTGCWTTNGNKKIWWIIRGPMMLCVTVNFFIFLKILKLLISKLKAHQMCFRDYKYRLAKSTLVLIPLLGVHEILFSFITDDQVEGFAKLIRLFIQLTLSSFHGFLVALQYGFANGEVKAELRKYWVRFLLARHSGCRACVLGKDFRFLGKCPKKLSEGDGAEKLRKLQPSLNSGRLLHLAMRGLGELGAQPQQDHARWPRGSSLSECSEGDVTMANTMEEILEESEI
Procedure: Evaluation of in vitro binding affinity of the different peptides was assessed by using Cell Based Assay (CBA) in the presence of escalating doses of the different peptides.

[2] = Stability of GLP-2 analogues on incubation at 37° C. (appearance, O.D. reading, RP-HPLC); type: physicochemical; settings: following 48 h incubation at 37° C.; for Stability via RP-HPLC main peak: change of main peak
Procedure: The GLP-2 analogues were tested for stability via appearance, O.D. reading (A.280, and A.325) and RP-HPLC (purity, and peak area) following t=0, 1 day, and 48 h incubation at 37° C.

GLP-2 receptor [3] = biological target: T2, GLP-2 receptor (UniProt O95838 1-553, limits assumed); assay: cell-based or functional assay
T2 sequence (looked up): T1 sequence (O95838 1-553)

[4] = Table 8, average of 3 independent CBA

## CCCC[C@H](NC(=O)[C@H](CCC(=O)O)NC(=O)[C@H](CC(=O)O)NC(=O)[C@H](CO)NC(=O)[C@H](Cc1ccccc1)NC(=O)[C@H](CO)NC(=O)CNC(=O)[C@H](CCC(=O)O)NC(=O)CNC(=O)[C@@H](N)Cc1c[nH]cn1)C(=O)N[C@H](Cc1ccccc1)C(=O)N[C@H](C(=O)N[C@H](C(=O)N[C@@H](CC(C)C)C(=O)N[C@@H](CC(=O)O)C(=O)N[C@@H](CC(N)=O)C(=O)N[C@@H](CC(C)C)C(=O)N[C@@H](C)C(=O)N[C@@H](C)C(=O)N[C@@H](CCCNC(=N)N)C(=O)N[C@@H](CC(=O)O)C(=O)N[C@@H](Cc1ccccc1)C(=O)N[C@H](C(=O)N[C@@H](CC(N)=O)C(=O)N[C@@H](Cc1c[nH]c2ccccc12)C(=O)N[C@@H](CC(C)C)C(=O)N[C@H](C(=O)N[C@@H](CCC(N)=O)C(=O)N[C@H](C(=O)N[C@@H](CCCCN)C(=O)N[C@H](C(=O)N[C@H](C(=O)N[C@@H](CC(=O)O)C(N)=O)[C@@H](C)O)[C@@H](C)CC)[C@@H](C)O)[C@@H](C)CC)[C@@H](C)CC)[C@@H](C)CC)[C@@H](C)O [Variant 2] (H-HGEGSFSDE[Nle][dF]TILDNLAARDFINWLIQTKITD-NH2)
GLP-2 receptor [1]; Table 7
  EC50 Ratio to Teduglutide: 6.4
[2]
  Solubility via appearance: V2: opaque
  Stability via RP-HPLC main peak: V2: −30%

## CCCC[C@H](NC(=O)[C@H](CCC(=O)O)NC(=O)[C@H](CC(=O)O)NC(=O)[C@H](CO)NC(=O)[C@H](Cc1ccccc1)NC(=O)[C@H](CO)NC(=O)CNC(=O)[C@H](CCC(=O)O)NC(=O)CNC(=O)[C@@H](N)Cc1c[nH]cn1)C(=O)N[C@H](Cc1ccccc1)C(=O)N[C@H](C(=O)N[C@H](C(=O)N[C@@H](CC(C)C)C(=O)N[C@@H](CC(=O)O)C(=O)N[C@@H](CC(C)C)C(=O)N[C@@H](CC(C)C)C(=O)N[C@@H](C)C(=O)N[C@@H](C)C(=O)N[C@@H](CCCNC(=N)N)C(=O)N[C@@H](CC(=O)O)C(=O)N[C@@H](Cc1ccccc1)C(=O)N[C@H](C(=O)N[C@@H](CC(N)=O)C(=O)N[C@@H](Cc1c[nH]c2ccccc12)C(=O)N[C@@H](CC(C)C)C(=O)N[C@H](C(=O)N[C@@H](CCC(N)=O)C(=O)N[C@H](C(=O)N[C@@H](CCCCN)C(=O)N[C@H](C(=O)N[C@H](C(=O)N[C@@H](CC(=O)O)C(N)=O)[C@@H](C)O)[C@@H](C)CC)[C@@H](C)O)[C@@H](C)CC)[C@@H](C)CC)[C@@H](C)CC)[C@@H](C)O [Variant 9] (H-HGEGSFSDE[Nle][dF]TILDLLAARDFINWLIQTKITD-NH2)
[2]
  Solubility via appearance: V9: clear
  Stability via RP-HPLC main peak: V9: −1.5%

## H-HGEGTFSSELATILDALAARDFIAWLIATKITDKKKKKK-NH2 [Variant 10, NH2-HG^2E^3GT^5FSS^8EL^10A^11TILDA^16LAAR20DFIA^24WLIA^28TKITDK^34K^35K^36K^37K^38K^39- NH2, reference compound]
GLP-2 receptor [1]; [4]
  EC50 Ratio to Teduglutide: 9.4
  EC50 Ratio to Variant 4: 5.3

## HGEGTFSSELATILDALAARDFIAWLIATKITDKKKKKK-NH2 [Variant 10, NH2-HG^2E^3GT^5FSS^8EL^10A^11TILDA^16LAAR20DFIA^24WLIA^28TKITDK^34K^35K^36K^37K^38K^39- NH2, reference compound]
GLP-2 receptor [1]; EC50 (nM) Average, average of 3 independent CBA, different GLP-2R Assay Kit lot (Table 8)
  EC50: 5.4 nM

B1: GLP-2 Variant #2 (peptide)
peptide: H-HGEGSFSDE[Nle][dF]TILDNLAARDFINWLIQTKITD-NH2
SMILES: CCCC[C@H](NC(=O)[C@H](CCC(=O)O)NC(=O)[C@H](CC(=O)O)NC(=O)[C@H](CO)NC(=O)[C@H](Cc1ccccc1)NC(=O)[C@H](CO)NC(=O)CNC(=O)[C@H](CCC(=O)O)NC(=O)CNC(=O)[C@@H](N)Cc1c[nH]cn1)C(=O)N[C@H](Cc1ccccc1)C(=O)N[C@H](C(=O)N[C@H](C(=O)N[C@@H](CC(C)C)C(=O)N[C@@H](CC(=O)O)C(=O)N[C@@H](CC(N)=O)C(=O)N[C@@H](CC(C)C)C(=O)N[C@@H](C)C(=O)N[C@@H](C)C(=O)N[C@@H](CCCNC(=N)N)C(=O)N[C@@H](CC(=O)O)C(=O)N[C@@H](Cc1ccccc1)C(=O)N[C@H](C(=O)N[C@@H](CC(N)=O)C(=O)N[C@@H](Cc1c[nH]c2ccccc12)C(=O)N[C@@H](CC(C)C)C(=O)N[C@H](C(=O)N[C@@H](CCC(N)=O)C(=O)N[C@H](C(=O)N[C@@H](CCCCN)C(=O)N[C@H](C(=O)N[C@H](C(=O)N[C@@H](CC(=O)O)C(N)=O)[C@@H](C)O)[C@@H](C)CC)[C@@H](C)O)[C@@H](C)CC)[C@@H](C)CC)[C@@H](C)CC)[C@@H](C)O
GLP-2 receptor [3]
  EC50 Ratio to Teduglutide, CBA: 6.4 fold
  EC50 [nM], Cell Based Assay (CBA), cells overexpressing the GLP-2 receptor: 36.1 nM

B2: GLP-2 Variant #6 (peptide)
peptide: H-HGEGSFSDE[Nle]NTILDLLAARDFINWLIQTKITD-OH
SMILES: CCCC[C@H](NC(=O)[C@H](CCC(=O)O)NC(=O)[C@H](CC(=O)O)NC(=O)[C@H](CO)NC(=O)[C@H](Cc1ccccc1)NC(=O)[C@H](CO)NC(=O)CNC(=O)[C@H](CCC(=O)O)NC(=O)CNC(=O)[C@@H](N)Cc1c[nH]cn1)C(=O)N[C@@H](CC(N)=O)C(=O)N[C@H](C(=O)N[C@H](C(=O)N[C@@H](CC(C)C)C(=O)N[C@@H](CC(=O)O)C(=O)N[C@@H](CC(C)C)C(=O)N[C@@H](CC(C)C)C(=O)N[C@@H](C)C(=O)N[C@@H](C)C(=O)N[C@@H](CCCNC(=N)N)C(=O)N[C@@H](CC(=O)O)C(=O)N[C@@H](Cc1ccccc1)C(=O)N[C@H](C(=O)N[C@@H](CC(N)=O)C(=O)N[C@@H](Cc1c[nH]c2ccccc12)C(=O)N[C@@H](CC(C)C)C(=O)N[C@H](C(=O)N[C@@H](CCC(N)=O)C(=O)N[C@H](C(=O)N[C@@H](CCCCN)C(=O)N[C@H](C(=O)N[C@H](C(=O)N[C@@H](CC(=O)O)C(=O)O)[C@@H](C)O)[C@@H](C)CC)[C@@H](C)O)[C@@H](C)CC)[C@@H](C)CC)[C@@H](C)CC)[C@@H](C)O
GLP-2 receptor [3]
  EC50 Ratio to Teduglutide, CBA: 3.8 fold
  EC50 [nM], Cell Based Assay (CBA), cells overexpressing the GLP-2 receptor: 21.7 nM

B3: GLP-2 Variant #7 (peptide)
peptide: H-HGEGSFSDE[Nle]NTILDYLAARDFINWLIQTKITD-OH
SMILES: CCCC[C@H](NC(=O)[C@H](CCC(=O)O)NC(=O)[C@H](CC(=O)O)NC(=O)[C@H](CO)NC(=O)[C@H](Cc1ccccc1)NC(=O)[C@H](CO)NC(=O)CNC(=O)[C@H](CCC(=O)O)NC(=O)CNC(=O)[C@@H](N)Cc1c[nH]cn1)C(=O)N[C@@H](CC(N)=O)C(=O)N[C@H](C(=O)N[C@H](C(=O)N[C@@H](CC(C)C)C(=O)N[C@@H](CC(=O)O)C(=O)N[C@@H](Cc1ccc(O)cc1)C(=O)N[C@@H](CC(C)C)C(=O)N[C@@H](C)C(=O)N[C@@H](C)C(=O)N[C@@H](CCCNC(=N)N)C(=O)N[C@@H](CC(=O)O)C(=O)N[C@@H](Cc1ccccc1)C(=O)N[C@H](C(=O)N[C@@H](CC(N)=O)C(=O)N[C@@H](Cc1c[nH]c2ccccc12)C(=O)N[C@@H](CC(C)C)C(=O)N[C@H](C(=O)N[C@@H](CCC(N)=O)C(=O)N[C@H](C(=O)N[C@@H](CCCCN)C(=O)N[C@H](C(=O)N[C@H](C(=O)N[C@@H](CC(=O)O)C(=O)O)[C@@H](C)O)[C@@H](C)CC)[C@@H](C)O)[C@@H](C)CC)[C@@H](C)CC)[C@@H](C)CC)[C@@H](C)O
GLP-2 receptor [3]
  EC50 Ratio to Teduglutide, CBA: 3 fold
  EC50 [nM], Cell Based Assay (CBA), cells overexpressing the GLP-2 receptor: 17.2 nM
